Source: patent US20060100431A1, “Biologically active compounds” (Amura Therapeutics Limited, priority 2002, published 2006)

How the values were obtained:
Wild-type cruzipain = Wild-type cruzipain (Trypanosoma cruzi, UniProt P25779); assay: Trypanosoma cruzi cruzipain peptidase activity assay (Ki); type: biochemical; conditions: read-out: Ki, inhibitors of cruzain and cruzipains
Outline: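 Native cruzipain from T. cruzi Dm28 epimastigotes, 2.5 nM, in 100 mM sodium phosphate pH 6.75 with 1 mM EDTA and 10 mM L-cysteine, 25 °C, DMSO <1%. Rates taken from continuous fluorogenic substrate read; Ki by regression assuming reversible pure-competitive inhibition.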

CPB2.8ΔCTE = biological target: T1, CPB2.8ΔCTE (Leishmania mexicana, UniProt P36400); assay: Leishmania mexicana cysteine protease B (CPB) peptidase activity assay (Ki); type: biochemical; conditions: Ki, inhibitors of Leismania mexicana CPB protease
T1 construct: Wild-type recombinant CPB without the C-terminal extention (i.e. CPB2.8ΔCTE); Dr. Jeremy Mottram (Wellcome Centre for Molecular Parasitology, University of Glasgow)
T1 sequence (P36400 126-343, stated change not applied): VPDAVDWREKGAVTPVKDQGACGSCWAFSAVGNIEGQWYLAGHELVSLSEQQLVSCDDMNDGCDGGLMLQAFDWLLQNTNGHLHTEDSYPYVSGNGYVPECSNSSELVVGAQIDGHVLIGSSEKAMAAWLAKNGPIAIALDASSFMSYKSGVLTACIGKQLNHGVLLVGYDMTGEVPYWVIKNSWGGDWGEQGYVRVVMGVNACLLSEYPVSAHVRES
Outline: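 Apparent Ki was derived by regression of activity against inhibitor concentration, assuming pure-competitive reversible binding. Reaction: 0.25 nM CPB lacking the C-terminal extension, pH 5.5 acetate buffer (1 mM EDTA, 200 mM NaCl, 10 mM DTT), 25 °C, followed by continuous substrate fluorescence.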

Wild-type cruzipain, sequence (P25779 whole entry): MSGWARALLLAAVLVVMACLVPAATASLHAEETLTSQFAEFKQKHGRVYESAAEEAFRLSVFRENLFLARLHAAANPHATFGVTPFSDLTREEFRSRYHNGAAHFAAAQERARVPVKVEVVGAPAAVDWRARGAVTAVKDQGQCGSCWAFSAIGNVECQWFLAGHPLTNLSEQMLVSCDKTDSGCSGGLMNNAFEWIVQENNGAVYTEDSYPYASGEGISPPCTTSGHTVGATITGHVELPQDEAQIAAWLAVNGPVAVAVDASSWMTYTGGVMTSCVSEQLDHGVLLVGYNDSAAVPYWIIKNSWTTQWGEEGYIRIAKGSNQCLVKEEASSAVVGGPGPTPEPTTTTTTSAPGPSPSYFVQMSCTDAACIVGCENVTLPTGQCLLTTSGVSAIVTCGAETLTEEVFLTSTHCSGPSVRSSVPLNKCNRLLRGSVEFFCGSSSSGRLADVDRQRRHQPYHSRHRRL

Compound | Ki (Wild-type cruzipain) [µM] | Ki (CPB2.8ΔCTE) [µM]
CC(C)C[C@H](NC(=O)c1ccc(N(C)C)cc1)C(=O)N1CC[C@@H]2[C@H]1C(=O)CN2C(=O)C1CC=CCC1 (stereo partly drawn) [Example 138, (3aR,6aS)-N-{(1S)-1-[4-(Cyclohex-3-enecarbonyl)-6-oxo-hexahydro-pyrrolo[3,2-b]pyrrole-1-carbonyl]-3-methyl-butyl}-4-dimethylamino-benzamide] | < 5 | < 5
COC1CCCC(C(=O)N2CC(=O)[C@@H]3[C@H]2CCN3C(=O)[C@H](CC(C)C)NC(=O)c2ccc(N(C)C)cc2)C1 (stereo partly drawn) [Example 139, (3aR,6aS)-4-Dimethylamino-N-{(1S)-1-[4-(3-methoxy-cyclohexanecarbonyl)-6-oxo-hexahydro-pyrrolo[3,2-b]pyrrole-1-carbonyl]-3-methyl-butyl}-benzamide] | < 5 | < 5
CC(C)C[C@H](NC(=O)c1ccc(N(C)C)cc1)C(=O)N1CC[C@@H]2[C@H]1C(=O)CN2C(=O)N1CCOCC1 [Example 142, (3aR,6aS)-4-Dimethylamino-N-{(1S)-3-methyl-1-[4-(morpholin-4-carbonyl)-6-oxo-hexahydro-pyrrolo[3,2-b]pyrrole-1-carbonyl]-butyl}-benzamide] | < 5 | < 5
CC(C)C[C@H](NC(=O)c1ccc(N(C)C)cc1)C(=O)N1CC[C@@H]2[C@H]1C(=O)CN2C(=O)[C@H](CO)NC(=O)OCc1ccccc1 [Example 147, (3aS,6aR)-((1S)-2-{4-[(2S)-2-(4-Dimethylamino-benzoylamino)-4-methyl-pentanoyl]-3-oxo-hexahydro-pyrrolo[3,2-b]pyrrole-1-yl}-1-hydroxymethyl-2-oxo-ethyl)-carbamic acid benzyl ester] | < 5 | < 5
CC(C)C[C@H](NC(=O)c1ccc(N(C)C)cc1)C(=O)N1CC[C@@H]2[C@H]1C(=O)CN2C(=O)[C@@H](N)CC(C)C [Example 150, (3aR,6aS)-N-{(1S)-1-[4-((2S)-2-Amino-4-methyl-pentanoyl)-6-oxo-hexahydro-pyrrolo[3,2-b]pyrrole-1-carbonyl]-3-methyl-butyl}-4-dimethylamino-benzamide] | < 5 | < 5
CC(C)C[C@H](NC(=O)c1ccc(N(C)C)cc1)C(=O)N1CC[C@@H]2[C@H]1C(=O)CN2C(=O)[C@H](Cc1ccccc1)NC(=O)OCc1ccccc1 [Example 160, (3aS,6aR)-((1S)-1-Benzyl-2-{-[(2S)-2-(4-dimethylamino-benzoylamino)-4-methyl-pentanoyl]-3-oxo-hexahydro-pyrrolo[3,2-b]pyrrole-1-yl}-2-oxo-ethyl)-carbamic acid benzyl ester] | < 5 | < 5
CC(=O)Nc1ccsc1C(=O)N1CC(=O)[C@@H]2[C@H]1CCN2C(=O)[C@H](CC(C)C)NC(=O)c1ccc(N(C)C)cc1 [Example 165, (3aR,6aS)-N-{(1S)-[4-(3-Acetylamino-thiophene-2-carbonyl)-6-oxo-hexahydro-pyrrolo[3,2-b]pyrrole-1-carbonyl]-3-methyl-butyl}-4-dimethylamino-benzamide] | < 5 | < 5
CC(C)C[C@H](NC(=O)c1ccc(N(C)C)cc1)C(=O)N1CC[C@@H]2[C@H]1C(=O)CN2C(=O)Nc1ccccc1 [Example 167, (3aS,6aR)-4-[(2S)-2-(4-Dimethylamino-benzoylamino)-4-methyl-pentanoyl]-3-oxo-hexahydro-pyrrolo[3,2-b]pyrrole-1-carboxylic acid phenylamide] | < 5 | < 5
CC(C)C[C@H](NC(=O)c1ccc(C(C)(C)C)cc1)C(=O)N1CC[C@@H]2[C@H]1C(=O)CN2C(=O)Nc1ccccc1 [Example 190, (3aS,6aR)-4-(2S-2-(4-tert-Butyl-benzoylamino)-4-methyl-pentanoyl]-3-oxo-hexahydro-pyrrolo[3,2-b]pyrrole-1-carboxylic acid phenylamide] | < 5 | < 5
CC(C)CCC(=O)N1CC(=O)[C@@H]2[C@H]1CCN2C(=O)[C@H](CC(C)C)NC(=O)c1ccc(C(C)(C)C)cc1 [Example 191, (3aR,6aS)-4-tert-Butyl-N-{(1S)-3-methyl-1-[4-(4-methyl-pentanoyl)-6-oxo-hexahydro-pyrrolo[3,2-b]pyrrole-1-carbonyl]-butyl}-benzamide] | < 5 | < 5
CC(C)C[C@H](NC(=O)c1ccc(C(C)(C)C)cc1)C(=O)N1CC[C@@H]2[C@H]1C(=O)CN2C(=O)[C@@H](N)CC(C)C [Example 192, (3aR,6aS)-N-{(1S)-1-[4-((2S)-2-Amino-4-methyl-pentanoyl)-6-oxo-hexahydro-pyrrolo[3,2-b]pyrrole-1-carbonyl]-3-methyl-butyl}-4-tert-butyl-benzamide] | < 5 | < 5
CC(C)C[C@H](NC(=O)c1ccc(N(C)C)cc1)C(=O)N1CC[C@@H]2[C@H]1C(=O)CN2C(=O)[C@@H](N)[C@@H](C)O [Example 207, (3aR,6aS)-N-{(1S)-1-[4-((2S,3R)-2-Amino-3-hydroxy-butyryl)-6-oxo-hexahydro-pyrrolo[3,2-b]pyrrole-1-carbonyl]-3-methyl-butyl}-4-dimethylamino-benzamide] | < 5 | < 5
CC(C)C[C@H](NC(=O)c1ccc(N(C)C)cc1)C(=O)N1CC[C@@H]2[C@H]1C(=O)CN2C(=O)[C@@H](N)[C@H](C)O [Example 208, (3aR,6aS)-N-{(1S)-1-[4-((2S,3S)-2-Amino-3-hydroxy-butyryl)-6-oxo-hexahydro-pyrrolo[3,2-b]pyrrole-1-carbonyl]-3-methyl-butyl}-4-dimethylamino-benzamide] | < 5 | < 5
CC[C@H](C)[C@H](N)C(=O)N1CC(=O)[C@@H]2[C@H]1CCN2C(=O)[C@H](CC(C)C)NC(=O)c1ccc(N(C)C)cc1 [Example 209, (3aR,6aS)-N-{(1S)-1-[4-((2S,3S)-2-Amino-3-methyl-pentanoyl)-6-oxo-hexahydro-pyrrolo[3,2-b]pyrrole-1-carbonyl]-3-methyl-butyl}-4-dimethylamino-benzamide] | < 5 | < 5
CC(C)C[C@H](NC(=O)c1ccc(N(C)C)cc1)C(=O)N1CC[C@@H]2[C@H]1C(=O)CN2C(=O)[C@@H](N)CC(C)(C)C [Example 212, (3aR,6aS)-N-{(1S)-1-[4-((2S)-2-Amino-4,4-dimethyl-pentanoyl)-6-oxo-hexahydro-pyrrolo[3,2-b]pyrrole-1-carbonyl]-3-methyl-butyl}-4-dimethylamino-benzamide] | < 5 | < 5
CC(=O)N[C@@H](CCC(C)C)C(=O)N1CC(=O)[C@@H]2[C@H]1CCN2C(=O)[C@H](CC(C)C)NC(=O)c1ccc(N(C)C)cc1 [Example 214, (3aR,6aS)-N-{(1S)-1-[4-((2S)-2-Acetylamino-5-methyl-hexanoyl)-6-oxo-hexahydro-pyrrolo[3,2-b]pyrrole-1-carbonyl]-3-methyl-butyl}-4-dimethylamino-benzamide] | < 5 | < 5
CN[C@@H](CC(C)C)C(=O)N1CC(=O)[C@@H]2[C@H]1CCN2C(=O)[C@H](CC(C)C)NC(=O)c1ccc(N(C)C)cc1 [Example 220, (3aR,6aS)-4-Dimethylamino-N-{(1S)-3-methyl-1-[4-((2S)-4-methyl-2-methylamino-pentanoyl)-6-oxo-hexahydro-pyrrolo[3,2-b]pyrrole-1-carbonyl]-butyl}-benzamide] | < 5 | < 5
CC(C)C[C@H](NC(=O)c1ccc(N(C)C)cc1)C(=O)N1CC[C@@H]2[C@H]1C(=O)CN2C(=O)[C@@H](O)CC(C)C [Example 233, (3aR,6aS)-4-Dimethylamino-N-{(1S)-1-[4-((2S)2-hydroxy-4 methyl-pentanoyl)-6-oxo-hexahydro-pyrrolo[3,2-b]pyrrole-1-carbonyl]-3-methyl-butyl}-benzamide] | < 5 | < 5
CC(C)C[C@H](NC(=O)c1ccc(N(C)C)cc1)C(=O)N1CC[C@@H]2[C@H]1C(=O)CN2C(=O)N1CCCC1 [Example 235, (3aR,6aS)-4-Dimethylamino-N-{(1S)-3-methyl-1-[6-oxo-4-(pyrrolidine-1-carbonyl)-hexahydro-pyrrolo[3,2-b]pyrrole-1-carbonyl]-butyl}-benzamide] | < 5 | < 5
CC(C)C[C@H](NC(=O)c1ccc(N(C)C)cc1)C(=O)N1OC[C@@H]2[C@H]1C(=O)CN2C(=O)c1ccccc1 [Example 248, (3aS,6aS)-N-[(1S)-1-(4-Benzoyl-6-oxo-hexahydro-2-oxa-1,4-diaza-pentalene-1-carbonyl)-3-methyl-butyl]-4-dimethylamino-benzamide] | < 5 | < 5
NCc1ccc(C(=O)N[C@@H](Cc2ccc(O)cc2)C(=O)N2CC[C@@H]3[C@H]2C(=O)CN3C(=O)c2ccccc2)cc1 [Example 318] | < 5 | < 5
NCc1cccc(C(=O)N[C@@H](Cc2ccc(O)cc2)C(=O)N2CC[C@@H]3[C@H]2C(=O)CN3C(=O)c2ccccc2)c1 [Example 319, (3aR,6aS)-3-Aminomethyl-N-[(1S)-2-(4-benzoyl-6-oxo-hexahydro-pyrrolo[3,2-b]pyrrole-1-yl)-1-(4-hydroxy-benzyl)-2-oxo-ethyl]-benzamide] | < 5 | < 5
NCc1cccc(C(=O)N[C@@H](Cc2ccc(O)cc2)C(=O)N2CC[C@@H]3[C@H]2C(=O)CN3C(=O)c2csc3ccccc23)c1 [Example 331, (3aR,6aS)-3-Aminomethyl-N-[(1S)-2-[4-(benzo[b]thiophene-3-carbonyl)-6-oxo-hexahydro-pyrrolo[3,2-b]pyrrole-1-yl]-1-(4-hydroxy-benzyl)-2-oxo-ethyl]-benzamide] | < 5 | < 5
